Positions of bridges follow the written chain, without caps; N, C: chain ends. Residues, ends and D or L forms follow the SMILES beside them.
Columns and labels:
Assay in all cases: cell-based
hNav1.7 = hNav1.7 (Homo sapiens, UniProt Q15858); format: cell-based; conditions: IonWorks Quattro, use-dependent block, hNav1.7; read-out: IWQ Use Nav1.7
hNav1.5 = hNav1.5 (Homo sapiens, UniProt Q14524); conditions: IonWorks Quattro, use-dependent block, hNav1.5; read-out: IWQ Use Nav1.5
hNav1.3 = hNav1.3 (Homo sapiens, UniProt Q9NY46); conditions: IonWorks Quattro, use-dependent block, hNav1.3; read-out: IWQ Use Nav1.3
Sequence of hNav1.3 (Q9NY46 whole entry, looked up): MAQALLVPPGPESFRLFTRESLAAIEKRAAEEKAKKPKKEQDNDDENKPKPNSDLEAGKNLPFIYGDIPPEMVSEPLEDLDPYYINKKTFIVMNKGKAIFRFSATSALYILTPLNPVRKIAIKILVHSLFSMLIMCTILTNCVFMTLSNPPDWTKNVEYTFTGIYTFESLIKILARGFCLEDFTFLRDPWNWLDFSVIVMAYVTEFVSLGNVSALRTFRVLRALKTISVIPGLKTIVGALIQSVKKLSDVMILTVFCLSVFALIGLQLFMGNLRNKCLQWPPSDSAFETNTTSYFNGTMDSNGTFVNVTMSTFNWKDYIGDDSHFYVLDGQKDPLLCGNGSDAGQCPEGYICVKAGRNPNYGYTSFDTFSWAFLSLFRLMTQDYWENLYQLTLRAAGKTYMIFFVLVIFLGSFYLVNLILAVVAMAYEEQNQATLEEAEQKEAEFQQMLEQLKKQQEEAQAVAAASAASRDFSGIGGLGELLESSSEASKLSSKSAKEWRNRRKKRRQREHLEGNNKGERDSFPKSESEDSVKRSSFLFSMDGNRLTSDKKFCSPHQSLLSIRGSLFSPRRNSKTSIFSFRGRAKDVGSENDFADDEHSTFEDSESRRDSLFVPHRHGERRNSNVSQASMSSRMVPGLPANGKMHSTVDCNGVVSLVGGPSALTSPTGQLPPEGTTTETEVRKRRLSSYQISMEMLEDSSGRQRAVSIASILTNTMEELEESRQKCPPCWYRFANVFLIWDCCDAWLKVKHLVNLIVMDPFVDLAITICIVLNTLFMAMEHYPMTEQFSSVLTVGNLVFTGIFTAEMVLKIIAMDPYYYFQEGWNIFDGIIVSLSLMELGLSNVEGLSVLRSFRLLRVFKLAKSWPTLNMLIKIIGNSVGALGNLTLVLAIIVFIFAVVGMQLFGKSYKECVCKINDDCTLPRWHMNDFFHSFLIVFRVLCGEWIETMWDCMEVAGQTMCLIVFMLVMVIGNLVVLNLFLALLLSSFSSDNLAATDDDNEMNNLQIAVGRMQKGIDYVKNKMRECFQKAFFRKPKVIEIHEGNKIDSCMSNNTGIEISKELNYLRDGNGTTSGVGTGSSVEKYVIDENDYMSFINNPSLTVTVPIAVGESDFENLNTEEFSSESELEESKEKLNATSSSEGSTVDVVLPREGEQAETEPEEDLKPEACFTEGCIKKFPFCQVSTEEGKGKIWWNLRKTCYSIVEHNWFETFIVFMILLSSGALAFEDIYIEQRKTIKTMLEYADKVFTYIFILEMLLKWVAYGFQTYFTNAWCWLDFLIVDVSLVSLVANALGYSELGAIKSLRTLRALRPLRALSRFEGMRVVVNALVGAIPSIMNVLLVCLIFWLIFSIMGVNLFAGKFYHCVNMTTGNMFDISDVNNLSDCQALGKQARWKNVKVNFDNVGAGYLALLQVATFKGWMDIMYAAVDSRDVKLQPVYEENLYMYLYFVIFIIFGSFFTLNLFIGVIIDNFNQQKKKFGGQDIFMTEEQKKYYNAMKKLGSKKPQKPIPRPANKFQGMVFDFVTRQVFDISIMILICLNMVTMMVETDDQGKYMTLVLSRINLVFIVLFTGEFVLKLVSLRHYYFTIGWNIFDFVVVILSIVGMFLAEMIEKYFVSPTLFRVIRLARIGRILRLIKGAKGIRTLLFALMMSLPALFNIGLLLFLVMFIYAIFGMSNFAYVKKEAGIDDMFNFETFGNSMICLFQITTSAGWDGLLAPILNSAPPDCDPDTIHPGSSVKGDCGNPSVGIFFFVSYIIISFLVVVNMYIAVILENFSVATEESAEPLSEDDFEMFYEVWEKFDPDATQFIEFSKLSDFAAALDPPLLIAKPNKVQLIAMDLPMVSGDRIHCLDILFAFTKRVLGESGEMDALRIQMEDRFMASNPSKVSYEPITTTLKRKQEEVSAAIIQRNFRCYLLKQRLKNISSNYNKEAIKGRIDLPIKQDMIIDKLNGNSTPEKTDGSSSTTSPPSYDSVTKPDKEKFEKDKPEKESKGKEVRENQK

Sequence of hNav1.7 (Q15858 whole entry, looked up): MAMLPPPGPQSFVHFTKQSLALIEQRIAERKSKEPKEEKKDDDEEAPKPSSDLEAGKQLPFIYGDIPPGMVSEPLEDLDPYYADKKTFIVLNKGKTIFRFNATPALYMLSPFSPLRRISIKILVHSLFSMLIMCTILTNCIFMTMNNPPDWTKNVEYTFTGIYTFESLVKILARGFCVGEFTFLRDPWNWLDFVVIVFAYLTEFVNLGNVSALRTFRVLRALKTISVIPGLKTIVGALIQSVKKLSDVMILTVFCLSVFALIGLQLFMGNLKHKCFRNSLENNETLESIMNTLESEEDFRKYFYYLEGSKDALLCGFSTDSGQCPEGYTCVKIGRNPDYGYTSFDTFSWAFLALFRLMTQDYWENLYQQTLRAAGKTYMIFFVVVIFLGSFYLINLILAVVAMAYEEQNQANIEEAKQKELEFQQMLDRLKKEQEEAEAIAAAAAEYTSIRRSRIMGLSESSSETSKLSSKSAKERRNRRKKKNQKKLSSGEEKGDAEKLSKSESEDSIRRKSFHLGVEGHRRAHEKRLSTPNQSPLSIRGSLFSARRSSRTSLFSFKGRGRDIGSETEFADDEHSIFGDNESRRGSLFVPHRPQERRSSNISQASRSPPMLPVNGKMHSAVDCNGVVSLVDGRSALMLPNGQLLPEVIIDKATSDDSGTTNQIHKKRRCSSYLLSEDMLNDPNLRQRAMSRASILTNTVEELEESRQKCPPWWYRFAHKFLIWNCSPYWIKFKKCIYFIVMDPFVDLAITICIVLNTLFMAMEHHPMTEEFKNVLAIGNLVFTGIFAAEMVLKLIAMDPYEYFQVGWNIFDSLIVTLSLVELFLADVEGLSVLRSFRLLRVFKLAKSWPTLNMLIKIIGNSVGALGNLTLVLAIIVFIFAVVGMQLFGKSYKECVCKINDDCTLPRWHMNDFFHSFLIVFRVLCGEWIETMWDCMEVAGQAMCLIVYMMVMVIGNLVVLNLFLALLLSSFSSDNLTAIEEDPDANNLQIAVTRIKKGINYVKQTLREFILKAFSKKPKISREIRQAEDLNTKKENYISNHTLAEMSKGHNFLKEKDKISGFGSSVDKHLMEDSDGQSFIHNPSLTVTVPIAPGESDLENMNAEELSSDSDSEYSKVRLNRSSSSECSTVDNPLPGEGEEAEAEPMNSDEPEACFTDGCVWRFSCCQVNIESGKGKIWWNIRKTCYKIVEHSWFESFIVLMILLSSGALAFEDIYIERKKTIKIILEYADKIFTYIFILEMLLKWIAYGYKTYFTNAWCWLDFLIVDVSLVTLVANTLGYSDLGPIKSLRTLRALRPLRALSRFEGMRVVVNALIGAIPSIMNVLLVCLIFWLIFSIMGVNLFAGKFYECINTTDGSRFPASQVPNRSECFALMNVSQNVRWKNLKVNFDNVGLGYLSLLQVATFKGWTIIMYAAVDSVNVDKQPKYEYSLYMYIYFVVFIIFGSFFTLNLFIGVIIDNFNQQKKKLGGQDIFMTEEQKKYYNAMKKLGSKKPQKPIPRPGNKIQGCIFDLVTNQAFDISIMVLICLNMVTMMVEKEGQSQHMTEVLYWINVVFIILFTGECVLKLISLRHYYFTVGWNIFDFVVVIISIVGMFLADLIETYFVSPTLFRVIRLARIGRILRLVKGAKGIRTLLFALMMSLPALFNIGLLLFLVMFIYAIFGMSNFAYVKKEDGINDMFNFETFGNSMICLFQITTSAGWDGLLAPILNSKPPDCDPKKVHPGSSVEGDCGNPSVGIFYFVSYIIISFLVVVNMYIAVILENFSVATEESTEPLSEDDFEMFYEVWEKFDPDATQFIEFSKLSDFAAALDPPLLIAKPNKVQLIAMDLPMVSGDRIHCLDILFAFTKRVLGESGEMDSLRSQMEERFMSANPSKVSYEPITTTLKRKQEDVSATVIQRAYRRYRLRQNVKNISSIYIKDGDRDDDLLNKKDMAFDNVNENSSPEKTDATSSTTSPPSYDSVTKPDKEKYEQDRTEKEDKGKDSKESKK

`CC[C@H](C)[C@@H]1NC(=O)[C@@H]2CSSC[C@@H]3NC(=O)[C@H](C(C)C)NC(=O)[C@H](CC(C)C)NC(=O)[C@H](CC(N)=O)NC(=O)[C@@H]4CCCN4C(=O)[C@H](CCCNC(=N)N)NC(=O)[C@H](CSSC[C@H](NC(=O)[C@@H](N)CC(=O)O)C(=O)N[C@@H](CC(C)C)C(=O)NCC(=O)N[C@@H](C)C(=O)N[C@@H](CC(C)C)C(=O)N[C@@H](CCCNC(=N)N)C(=O)N[C@@H](CCCCN)C(=O)N2)NC(=O)[C@H](CSSC[C@@H](C(=O)N[C@@H](CCCCN)C(=O)N[C@@H](Cc2ccc(O)cc2)C(=O)N[C@H](C(=O)N[C@@H](Cc2ccccc2)C(=O)O)C(C)C)NC(=O)[C@H](Cc2c[nH]c4ccccc24)NC(=O)[C@H](CCCNC(=N)N)NC(=O)[C@H](Cc2c[nH]cn2)NC(=O)[C@H]([C@@H](C)O)NC(=O)[C@H](CCCNC(=N)N)NC(=O)[C@H](CO)NC3=O)NC(=O)[C@H](CCCCN)NC(=O)[C@H](CC(=O)O)NC(=O)[C@H](Cc2ccccc2)NC(=O)[C@H](CC(=O)O)NC(=O)[C@@H]2CCCN2C1=O` [compound 863] (H-DCLGALRKCIPDFDKCCRPNLVCSRTHRWCKYVF-OH; disulfide 2-17, 9-23, 16-30) was tested, and the IC50 (hNav1.7) was greater than 5 µM, the IC50 (hNav1.5) was greater than 5 µM and the IC50 (hNav1.3) was greater than 5 µM.
`CC[C@H](C)[C@@H]1NC(=O)[C@@H]2CSSC[C@@H]3NC(=O)[C@H](C(C)C)NC(=O)[C@H](CC(C)C)NC(=O)[C@H](CC(N)=O)NC(=O)[C@@H]4CCCN4C(=O)[C@H](CCCNC(=N)N)NC(=O)[C@H](CSSC[C@H](NC(=O)[C@@H](N)CC(=O)O)C(=O)N[C@@H](CC(C)C)C(=O)NCC(=O)N[C@@H](C)C(=O)N[C@@H](CC(C)C)C(=O)N[C@@H](CCCNC(=N)N)C(=O)N[C@@H](CCCCN)C(=O)N2)NC(=O)[C@H](CSSC[C@@H](C(=O)N[C@@H](CCCCN)C(=O)N[C@@H](Cc2ccc(O)cc2)C(=O)N[C@H](C(=O)N[C@@H](Cc2ccccc2)C(=O)O)C(C)C)NC(=O)[C@H](Cc2c[nH]c4ccccc24)NC(=O)[C@H](CCCNC(=N)N)NC(=O)[C@H](Cc2c[nH]cn2)NC(=O)[C@H]([C@@H](C)O)NC(=O)[C@H](CCCNC(=N)N)NC(=O)[C@H](CO)NC3=O)NC(=O)[C@H](CCCCN)NC(=O)[C@H](CC(=O)O)NC(=O)[C@H](Cc2c[nH]cn2)NC(=O)[C@H](CC(=O)O)NC(=O)[C@@H]2CCCN2C1=O` [compound 864] (H-DCLGALRKCIPDHDKCCRPNLVCSRTHRWCKYVF-OH; disulfide 2-17, 9-23, 16-30) showed an IC50 (hNav1.7) greater than 5 µM, an IC50 (hNav1.5) greater than 5 µM and an IC50 (hNav1.3) of 3.9 µM.
`CC[C@H](C)[C@@H]1NC(=O)[C@H](CC(=O)O)NC(=O)[C@@H]2CCCN2C(=O)[C@H]([C@@H](C)CC)NC(=O)[C@@H]2CSSC[C@@H]3NC(=O)[C@H](C(C)C)NC(=O)[C@H](CC(C)C)NC(=O)[C@H](CC(N)=O)NC(=O)[C@@H]4CCCN4C(=O)[C@H](CCCNC(=N)N)NC(=O)[C@H](CSSC[C@H](NC(=O)[C@@H](N)CC(=O)O)C(=O)N[C@@H](CC(C)C)C(=O)NCC(=O)N[C@@H](C)C(=O)N[C@@H](CC(C)C)C(=O)N[C@@H](CCCNC(=N)N)C(=O)N[C@@H](CCCCN)C(=O)N2)NC(=O)[C@H](CSSC[C@@H](C(=O)N[C@@H](CCCCN)C(=O)N[C@@H](Cc2ccc(O)cc2)C(=O)N[C@H](C(=O)N[C@@H](Cc2ccccc2)C(=O)O)C(C)C)NC(=O)[C@H](Cc2c[nH]c4ccccc24)NC(=O)[C@H](CCCNC(=N)N)NC(=O)[C@H](Cc2c[nH]cn2)NC(=O)[C@H]([C@@H](C)O)NC(=O)[C@H](CCCNC(=N)N)NC(=O)[C@H](CO)NC3=O)NC(=O)[C@H](CCCCN)NC(=O)[C@H](CC(=O)O)NC1=O` [compound 865] (H-DCLGALRKCIPDIDKCCRPNLVCSRTHRWCKYVF-OH; disulfide 2-17, 9-23, 16-30) was tested, and the IC50 (hNav1.7) was greater than 5 µM, the IC50 (hNav1.5) was greater than 5 µM and the IC50 (hNav1.3) was greater than 5 µM.
`CC[C@H](C)[C@@H]1NC(=O)[C@@H]2CSSC[C@@H]3NC(=O)[C@H](C(C)C)NC(=O)[C@H](CC(C)C)NC(=O)[C@H](CC(N)=O)NC(=O)[C@@H]4CCCN4C(=O)[C@H](CCCNC(=N)N)NC(=O)[C@H](CSSC[C@H](NC(=O)[C@@H](N)CC(=O)O)C(=O)N[C@@H](CC(C)C)C(=O)NCC(=O)N[C@@H](C)C(=O)N[C@@H](CC(C)C)C(=O)N[C@@H](CCCNC(=N)N)C(=O)N[C@@H](CCCCN)C(=O)N2)NC(=O)[C@H](CSSC[C@@H](C(=O)N[C@@H](CCCCN)C(=O)N[C@@H](Cc2ccc(O)cc2)C(=O)N[C@H](C(=O)N[C@@H](Cc2ccccc2)C(=O)O)C(C)C)NC(=O)[C@H](Cc2c[nH]c4ccccc24)NC(=O)[C@H](CCCNC(=N)N)NC(=O)[C@H](Cc2c[nH]cn2)NC(=O)[C@H]([C@@H](C)O)NC(=O)[C@H](CCCNC(=N)N)NC(=O)[C@H](CO)NC3=O)NC(=O)[C@H](CCCCN)NC(=O)[C@H](CC(=O)O)NC(=O)[C@H](CCCCN)NC(=O)[C@H](CC(=O)O)NC(=O)[C@@H]2CCCN2C1=O` [compound 866] (H-DCLGALRKCIPDKDKCCRPNLVCSRTHRWCKYVF-OH; disulfide 2-17, 9-23, 16-30) gave an IC50 (hNav1.7) greater than 5 µM, an IC50 (hNav1.5) greater than 5 µM and an IC50 (hNav1.3) of 2.3 µM.
Work on `CC[C@H](C)[C@@H]1NC(=O)[C@@H]2CSSC[C@@H]3NC(=O)[C@H](C(C)C)NC(=O)[C@H](CC(C)C)NC(=O)[C@H](CC(N)=O)NC(=O)[C@@H]4CCCN4C(=O)[C@H](CCCNC(=N)N)NC(=O)[C@H](CSSC[C@H](NC(=O)[C@@H](N)CC(=O)O)C(=O)N[C@@H](CC(C)C)C(=O)NCC(=O)N[C@@H](C)C(=O)N[C@@H](CC(C)C)C(=O)N[C@@H](CCCNC(=N)N)C(=O)N[C@@H](CCCCN)C(=O)N2)NC(=O)[C@H](CSSC[C@@H](C(=O)N[C@@H](CCCCN)C(=O)N[C@@H](Cc2ccc(O)cc2)C(=O)N[C@H](C(=O)N[C@@H](Cc2ccccc2)C(=O)O)C(C)C)NC(=O)[C@H](Cc2c[nH]c4ccccc24)NC(=O)[C@H](CCCNC(=N)N)NC(=O)[C@H](Cc2c[nH]cn2)NC(=O)[C@H]([C@@H](C)O)NC(=O)[C@H](CCCNC(=N)N)NC(=O)[C@H](CO)NC3=O)NC(=O)[C@H](CCCCN)NC(=O)[C@H](CC(=O)O)NC(=O)[C@H](CC(C)C)NC(=O)[C@H](CC(=O)O)NC(=O)[C@@H]2CCCN2C1=O` [compound 867] (H-DCLGALRKCIPDLDKCCRPNLVCSRTHRWCKYVF-OH; disulfide 2-17, 9-23, 16-30) yielded an IC50 (hNav1.7) greater than 5 µM, an IC50 (hNav1.5) greater than 5 µM and an IC50 (hNav1.3) of 4.9 µM.
For `CC[C@H](C)[C@@H]1NC(=O)[C@@H]2CSSC[C@@H]3NC(=O)[C@H](C(C)C)NC(=O)[C@H](CC(C)C)NC(=O)[C@H](CC(N)=O)NC(=O)[C@@H]4CCCN4C(=O)[C@H](CCCNC(=N)N)NC(=O)[C@H](CSSC[C@H](NC(=O)[C@@H](N)CC(=O)O)C(=O)N[C@@H](CC(C)C)C(=O)NCC(=O)N[C@@H](C)C(=O)N[C@@H](CC(C)C)C(=O)N[C@@H](CCCNC(=N)N)C(=O)N[C@@H](CCCCN)C(=O)N2)NC(=O)[C@H](CSSC[C@@H](C(=O)N[C@@H](CCCCN)C(=O)N[C@@H](Cc2ccc(O)cc2)C(=O)N[C@H](C(=O)N[C@@H](Cc2ccccc2)C(=O)O)C(C)C)NC(=O)[C@H](Cc2c[nH]c4ccccc24)NC(=O)[C@H](CCCNC(=N)N)NC(=O)[C@H](Cc2c[nH]cn2)NC(=O)[C@H]([C@@H](C)O)NC(=O)[C@H](CCCNC(=N)N)NC(=O)[C@H](CO)NC3=O)NC(=O)[C@H](CCCCN)NC(=O)[C@H](CC(=O)O)NC(=O)[C@H](CCSC)NC(=O)[C@H](CC(=O)O)NC(=O)[C@@H]2CCCN2C1=O` [compound 868] (H-DCLGALRKCIPDMDKCCRPNLVCSRTHRWCKYVF-OH; disulfide 2-17, 9-23, 16-30), the IC50 (hNav1.7) was greater than 5 µM, the IC50 (hNav1.5) was greater than 5 µM and the IC50 (hNav1.3) was greater than 5 µM.

— US9340590B2 (priority 2011, dated 2016)
